According to US9956319B2, “Compositions useful as antibiofilm or antimicrobial agents and methods using same” (BAYLOR COLLEGE OF MEDICINE, priority 2012, dated 2018):

Key:
Assay in all cases: Zones of inhibition of impregnated catheter segments, modified Kirby-Bauer method
MRSE = assay type: cell-based, Staphylococcus epidermidis
Protocol: (§1) To evaluate the antimicrobial activity of central venous catheters treated with α-lipoic acid or its combination with gentamicin, segments of 7 French triple lumen polyurethane central venous catheters were impregnated with α-lipoic acid, gentamicin, or the combination of lipoic acid and gentamicin using the same patented method described in Example 1 with 50 mg/ml of each agent (for the final solution volume). After the impregnation process and drying, zones of inhibition were performed on one-centimeter segments according to a modified Kirby-Bauer method against MSSE, MRSE, MRSA, K. pneumoniae, E. coli, P. mirabilis, Pseudomonas aeruginosa, and Candida albicans. Each segment was half embedded in the center of a Muller-Hinton agar plate that had been previously inoculated with an individual organism. Prior to placing the catheter segments in agar, each organism was grown for 18 hours in TSB to a concentration of 0.5 McFarland (10^8 cfu/ml). A cotton swab was placed in the suspension and streaked across the surface of the Muller-Hinton agar plate to cover the entire plate. All plates were placed in a 37° C. incubator for 24 hours. Zones were measured in mm after the incubation period (Table 2).
(§2) To evaluate the antimicrobial activity of central venous catheters treated with α-lipoic acid or its combination with doxycycline, segments of 7 French triple lumen polyurethane central venous catheters were impregnated with doxycycline or the combinations of α-lipoic acid and doxycycline using the same patented method described in Example 1 (U.S. Pat. No. 6,589,591) with 50 mg/ml of each agent (for the final solution volume). After the impregnation process and drying, zones of inhibition were performed on one-centimeter segments according to a modified Kirby-Bauer method against MSSE, MRSE, MRSA, K. pneumoniae, E. coli, P. aeruginosa, P. mirabilis, and C. albicans as described in Example 2. Zones of inhibition were measured in mm after the incubation period (Table 3).
(§3) To evaluate the antimicrobial activity of central venous catheters treated with lipoamide or its combination with levofloxacin, segments of 7 French triple lumen polyurethane central venous catheters were impregnated with levofloxacin or the combinations of lipoamide and levofloxacin using the same patented method described in Example 1 (U.S. Pat. No. 6,589,591) with 100 mg/ml (final solution volume) of each agent. After the impregnation process and drying, zones of inhibition were performed on one-centimeter segments according to a modified Kirby-Bauer method against MSSE, MRSE, MRSA, vancomycin-resistant Enterococcus (VRE), K. pneumoniae, E. coli, P. aeruginosa, P. mirabilis, and C. albicans as described in Example 2. Zones of inhibition were measured in mm after the incubation period (Table 4).
as §3, with “doxycycline,” for “levofloxacin,”, “doxycycline” for “levofloxacin”, “5).” for “4).”
(§4) To evaluate the antimicrobial activity of central venous catheters treated with dihydrolipoic acid, segments of 7 French triple lumen polyurethane central venous catheters were impregnated with dihydrolipoic acid using the same patented method described in Example 1 (U.S. Pat. No. 6,589,591) with 25 mg/ml (final solution volume) of the agent. […]

MSSE = assay type: cell-based, Staphylococcus epidermidis
Protocol: as §1, §2, §3
as §3, with “doxycycline,” for “levofloxacin,”, “doxycycline” for “levofloxacin”, “5).” for “4).”
as §4

MRSA = assay type: cell-based, Staphylococcus aureus
Protocol: as §1, §2, §3
as §3, with “doxycycline,” for “levofloxacin,”, “doxycycline” for “levofloxacin”, “5).” for “4).”
as §4

Candida albicans = assay type: cell-based
Protocol: as §1, §2, §3
as §3, with “doxycycline,” for “levofloxacin,”, “doxycycline” for “levofloxacin”, “5).” for “4).”
as §4

Klebsiella pneumoniae II = assay type: cell-based
Protocol: as §1, §2, §3
as §3, with “doxycycline,” for “levofloxacin,”, “doxycycline” for “levofloxacin”, “5).” for “4).”
as §4

Klebsiella pneumoniae I = assay type: cell-based
Protocol: as §1, §2, §3
as §3, with “doxycycline,” for “levofloxacin,”, “doxycycline” for “levofloxacin”, “5).” for “4).”
as §4

[1] = catheter impregnated with 25 mg/ml of the agent
[2] = Staphylococcus epidermidis, catheter impregnated with 100 mg/ml of each agent
[3] = catheter impregnated with 100 mg/ml of each agent
[4] = Staphylococcus epidermidis, catheter impregnated with 50 mg/ml of each agent, 37° C., 24 hours
[5] = catheter impregnated with 50 mg/ml of each agent, 37° C., 24 hours

Work on `O=C(O)CCCCC(S)CCS` (stereo not drawn) [Dihydrolipoic acid, 6,8-dimercaptooctanoic acid] yielded a Zones of inhibition (MRSE; [1]) of 21 mm, a Zones of inhibition (MSSE; [1]) of 25 mm and a Zones of inhibition (MRSA; [1]) of 24 mm. It also gave a Zones of inhibition (Candida albicans; [1]) of 13 mm, a Zones of inhibition (Klebsiella pneumoniae II; Klebsiella pneumoniae II, catheter impregnated with 25 mg/ml of the agent) of 0 mm and a Zones of inhibition (Klebsiella pneumoniae I; [1]) of 0 mm.

Compound `NC(=O)CCCCC1CCSS1` (stereo not drawn) [Lipoamide, lipoamide] has a zone of inhibition at 100000 µg/mL (MRSE; [2]) of 16 mm, a zone of inhibition at 100000 µg/mL (MSSE; [2]) of 24 mm and a zone of inhibition at 100000 µg/mL (MRSA; Staphylococcus aureus, catheter impregnated with 100 mg/ml of each agent) of 10 mm. For the same compound, the zone of inhibition at 100000 µg/mL (Candida albicans; [3]) was 6 mm, the zone of inhibition at 100000 µg/mL (Klebsiella pneumoniae II; Klebsiella pneumoniae II, catheter impregnated with 100 mg/ml of each agent) was 13 mm and the zone of inhibition at 100000 µg/mL (Klebsiella pneumoniae I; [3]) was 12 mm.

`O=C(O)CCCCC1CCSS1` (stereo not drawn) [Lipoic acid, 1,2-dithiolane-3-pentanoic acid] gave a zone of inhibition at 50000 µg/mL (MRSE; [4]) of 22 mm, a zone of inhibition at 50000 µg/mL (MSSE; [4]) of 32 mm and a zone of inhibition at 50000 µg/mL (MRSA; Staphylococcus aureus, catheter impregnated with 50 mg/ml of each agent, 37° C., 24 hours) of 13 mm. For the same compound, the zone of inhibition at 50000 µg/mL (Candida albicans; [5]) was 10 mm, the zone of inhibition at 50000 µg/mL (Klebsiella pneumoniae II; Klebsiella pneumoniae, Klebsielle pneuminiae II, catheter impregnated with 50 mg/ml of each agent, 37° C., 24 hours) was 18 mm and the zone of inhibition at 50000 µg/mL (Klebsiella pneumoniae I; [5]) was 20 mm.
